One compound from PMC6013775, “Inhibition of the key enzyme of sialic acid biosynthesis by C6-Se modified N-acetylmannosamine analogs” (Chemical Science, 2016) can be followed below.

Where “and” joins values, the source holds several entries; their conditions need not be identical. Equal entries are not always repeated.

The target of the test is T1, UDP-GlcNAc-2-epimerase (GNE) activity of GNE/MNK (Mus musculus, UniProt Q91WG8).
T1 construct: Analysis of GNE/MNK in mouse liver cytosol; from tissue; host or cells: mouse liver cytosol (supernatant of liver homogenate)
T1 sequence (Q91WG8 1-722): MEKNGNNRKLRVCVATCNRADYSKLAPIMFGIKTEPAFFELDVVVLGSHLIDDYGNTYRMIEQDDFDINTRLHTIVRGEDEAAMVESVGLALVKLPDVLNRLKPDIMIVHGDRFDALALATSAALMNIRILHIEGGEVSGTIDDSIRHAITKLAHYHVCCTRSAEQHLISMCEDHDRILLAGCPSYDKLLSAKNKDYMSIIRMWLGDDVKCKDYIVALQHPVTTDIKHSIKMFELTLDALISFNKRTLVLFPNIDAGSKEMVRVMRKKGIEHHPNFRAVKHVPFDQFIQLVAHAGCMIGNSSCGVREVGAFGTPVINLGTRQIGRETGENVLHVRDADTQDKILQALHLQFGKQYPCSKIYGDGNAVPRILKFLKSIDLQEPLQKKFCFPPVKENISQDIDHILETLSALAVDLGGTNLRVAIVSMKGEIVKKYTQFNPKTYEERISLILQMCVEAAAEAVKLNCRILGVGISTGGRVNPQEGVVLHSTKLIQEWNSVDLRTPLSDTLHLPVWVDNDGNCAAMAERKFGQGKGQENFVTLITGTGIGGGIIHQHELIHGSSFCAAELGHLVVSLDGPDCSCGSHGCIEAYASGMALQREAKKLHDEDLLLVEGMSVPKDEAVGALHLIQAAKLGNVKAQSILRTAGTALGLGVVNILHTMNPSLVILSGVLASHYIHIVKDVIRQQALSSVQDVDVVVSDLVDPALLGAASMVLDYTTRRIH
Nature of the test: Colorimetric GNE activity assay in mouse liver cytosol. The conditions noted are these: 1 mM UDP-GlcNAc, 45 min at 37 °C, read-out: IC50 for inhibiting GNE activity. In kind it is biochemical. From the text:
With the potent diselenide compound 14b in hand, we further studied the binding properties of this potent MNK inhibitor, which is to our knowledge the strongest MNK inhibitor reported to date. Diselenide 14b inhibited MNK activity in a dose dependent manner (Fig. 2A). […] Additionally, we tested if diselenide 14b influenced the GNE activity of the bifunctional GNE/MNK. […] To evaluate the specificity of the inhibitor towards other sugar kinases, we performed further inhibition studies using human GlcNAc kinase (GNK) and hexokinase (HK) from yeast (details in ESI ^†).
Evaluation of the influence of 14b on UDP-GlcNAc-2-epimerase activity
To study, if diselenide 14b interferes with the activity of the GNE domain of the bifunctional enzyme, we used enzymes from mouse liver homogenates. […] The sample was incubated at 37 °C for 20 min and the absorbance was […]

As to `CC(=O)N[C@@H]1C(O)O[C@H](C[Se][Se]C[C@H]2OC(O)[C@@H](NC(C)=O)[C@@H](O)[C@@H]2O)[C@@H](O)[C@@H]1O` (stereo partly shown) [Compound 14b], the IC50 was ~200 µM and 182 µM.

By IC50 is commonly meant the midpoint of a concentration-inhibition curve.
